Experimental data from patent publication US20240317721A1, “PYRAZOLYL DERIVATIVES AS INHIBITORS OF THE KRAS MUTANT PROTEIN” (NOVARTIS AG, priority 2021, published 2024).

The compounds below were run against KRasG12C (M1-K169, biotinylated on the N-terminus) (Homo sapiens (Human), UniProt P01116, G12C) (assay: Covalent competition assay: scintillation proximity assay (SPA) quantifying covalent modification of KRASG12C). Details: competition with radiolabeled covalent probe (Compound B/Compound A), 2 hours incubation, 10 nM KRasG12C.
Assay type: binding
In short: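 Test compounds compete with a radiolabeled covalent probe for modification of N-terminally biotinylated KRasG12C(M1-K169):GDP, final 10 nM protein, 25 nM radio-ligand, 475 nM unlabelled ligand, 2 h with agitation in 20 mM Tris-HCl pH 7.5, 150 mM NaCl, 0.1 mM MgCl2, 0.01% Tween-20.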

| IC50 [µM] | SMILES |
| --- | --- |
| 0.01 | C=CC(=O)N1CC2(CC(n3nc(N4CC[C@@H](CN5CC(O)C(OC)C5)CC4(C)C)c(-c4c(Cl)c(Cl)cc5[nH]ncc45)c3C)C2)C1 (single isomer, unassigned) [Example 273b, 1-(6-(4-(5,6-dichloro-1H-indazol-4-yl)-3-((R)-4-(((3S*,4S*)-3-hydroxy-4-methoxypyrrolidin-1-yl)methyl)-2,2-dimethylpiperidin-1-yl)-5-methyl-1H-pyrazol-1-yl)-2-azaspiro[3.3]heptan-2-yl)prop-2-en-1-one] |
| > 5 | C=CC(=O)N1CC2(CC(n3nc(N4CCC(CN5C[C@@H]6OCCO[C@@H]6C5)CC4(C)C)c(-c4c(Cl)c(Cl)cc5[nH]ncc45)c3C)C2)C1 (single isomer, unassigned) [Example 232a] |
| 2 | C=CC(=O)N1CC2(CC(n3nc(N4CC[C@@H](CN5C[C@@H]6CN(C(C)=O)C[C@@H]6C5)CC4(C)C)c(-c4c(Cl)c(Cl)cc5[nH]ncc45)c3C)C2)C1 (single isomer, unassigned) [Example 295a] |
| > 50 | C=CC(=O)N1CC2(CCC(n3nc(N4CCN(C(C)=O)CC4)c(-c4c(Cl)ccc5[nH]ncc45)c3C)C2)C1 (single isomer, unassigned) [Example 53b, 1-(6-(3-(4-acetylpiperazin-1-yl)-4-(5-chloro-1H-indazol-4-yl)-5-methyl-1H-pyrazol-1-yl)-2-azaspiro[3.4]octan-2-yl)prop-2-en-1-one] |
| 0.009 | C=CC(=O)N1CC2(CC(n3nc(N4CCC(CN5CCN(C)C(=O)C5)CC4(C)C)c(-c4c(Cl)c(Cl)cc5[nH]ncc45)c3C)C2)C1 (single isomer, unassigned) [Example 239b, 4-((1-(1-(2-acryloyl-2-azaspiro[3.3]heptan-6-yl)-4-(5,6-dichloro-1H-indazol-4-yl)-5-methyl-1H-pyrazol-3-yl)-2,2-dimethylpiperidin-4-yl)methyl)-1-methylpiperazin-2-one] |
| 2.9 | C=CC(=O)N1CC2(CC(n3nc(N4CCN(C[C@@H]5COCCO5)C[C@]4(C)CC)c(-c4c(Cl)c(C)cc5[nH]ncc45)c3C)C2)C1 (single isomer, unassigned) [Example 173a] |
| 11.5 | C=CC(=O)N1CC2(CC(n3nc(N4CCC5(CC4)CN(C(C)=O)CCO5)c(-c4c(Cl)c(C)cc5[nH]ncc45)c3C)C2)C1 (single isomer, unassigned) [Example 26a, 1-(6-(3-(4-acetyl-1-oxa-4,9-diazaspiro [5.5]undecan-9-yl)-4-(5-chloro-6-methyl-1H-indazol-4-yl)-5-methyl-1H-pyrazol-1-yl)-2-azaspiro[3.3]heptan-2-yl)prop-2-en-1-one] |
| > 5 | C=CC(=O)N1CC2(CC(n3nc(N4CCC(=O)CC45CCC5)c(-c4c(Cl)c(C)cc5[nH]ncc45)c3C)C2)C1 [Example 47, 5-(1-(2-acryloyl-2-azaspiro[3.3]heptan-6-yl)-4-(5-chloro-6-methyl-1H-indazol-4-yl)-5-methyl-1H-pyrazol-3-yl)-5-azaspiro[3.5]nonan-8-one] |
| 17.8 | C=CC(=O)N1CC2(CC(n3nc(N4CCN(C5COC5)CC45CCC5)c(-c4c(Cl)c(C)cc5[nH]ncc45)c3C)C2)C1 (single isomer, unassigned) [Example 54a, 1-(6-(4-(5-Chloro-6-methyl-1H-indazol-4-yl)-5-methyl-3-(8-(oxetan-3-yl)-5,8-diazaspiro[3.5]nonan-5-yl)-1H-pyrazol-1-yl)-2-azaspiro[3.3]heptan-2-yl)prop-2-en-1-one] |
| 0.026 | C=CC(=O)N1CC2(CC(n3nc(N4CCC(N5C[C@@H]6C[C@H]5CO6)CC4(C)C)c(-c4c(Cl)c(C)cc5[nH]ncc45)c3C)C2)C1 (single isomer, unassigned) [Example 83b] |
| 2.9 | C=CC(=O)N1CC2(CC(n3nc(N4CC[C@@H](CN5CCOC6CS(=O)(=O)CC65)CC4(C)C)c(-c4c(Cl)c(Cl)cc5[nH]ncc45)c3C)C2)C1 (single isomer, unassigned) [Example 265a, 1-(6-(4-(5,6-dichloro-1H-indazol-4-yl)-3-((R)-4-(((4aR*,7aS*)-6,6-dioxidohexahydro-4H-thieno[3,4-b][1,4]oxazin-4-yl)methyl)-2,2-dimethylpiperidin-1-yl)-5-methyl-1H-pyrazol-1-yl)-2-azaspiro[3.3]heptan-2-yl)prop-2-en-1-one] |
| > 5 | C=CC(=O)N1CC2(CC(n3nc(N4CC[C@@H](CN5CCN6C(=O)COC[C@@H]6C5)CC4(C)C)c(-c4c(Cl)c(Cl)cc5[nH]ncc45)c3C)C2)C1 (single isomer, unassigned) [Example 275a] |
| > 5 | C=CC(=O)N1CC2(CC(n3nc(N4CCN(C(C)C)CC45CCC5)c(-c4c(Cl)c(C)cc5[nH]ncc45)c3C)C2)C1 (single isomer, unassigned) [Example 131a, 1-(6-(4-(5-chloro-6-methyl-1H-indazol-4-yl)-3-(8-isopropyl-5,8-diazaspiro[3.5]nonan-5-yl)-5-methyl-1H-pyrazol-1-yl)-2-azaspiro[3.3]heptan-2-yl)prop-2-en-1-one] |
| 0.008 | C=CC(=O)N1CC2(CC(n3nc(N4CC[C@@H](CN5CC(O)C(OC)C5)CC4(C)C)c(-c4c(Cl)c(Cl)cc5[nH]ncc45)c3C)C2)C1 (single isomer, unassigned) [Example 274b, 1-(6-(4-(5,6-dichloro-1H-indazol-4-yl)-3-((R)-4-(((3S*,4S*)-3-hydroxy-4-methoxypyrrolidin-1-yl)methyl)-2,2-dimethylpiperidin-1-yl)-5-methyl-1H-pyrazol-1-yl)-2-azaspiro[3.3]heptan-2-yl)prop-2-en-1-one] |
| 1.3 | C=CC(=O)N1CC2(CC(n3nc(N4CC[C@@H](CN5CCOC6(C5)CN(C(C)=O)C6)CC4(C)C)c(-c4c(Cl)c(Cl)cc5[nH]ncc45)c3C)C2)C1 (single isomer, unassigned) [Example 311a] |
| 0.172 | C=CC(=O)N1CC2(CC(n3nc(N4CCN(C5COC5)C[C@]4(C)CC)c(-c4c(Cl)c(C)cc5[nH]nc(N)c45)c3C)C2)C1 (single isomer, unassigned) [Example 158b] |
| 0.113 | C=CC(=O)N1CC2(CC(n3nc(N4CCOCC4(C)C)c(-c4c(Cl)c(C)cc5[nH]ncc45)c3C)C2)C1 (single isomer, unassigned) [Example 22b, 1-(6-(4-(5-chloro-6-methyl-1H-indazol-4-yl)-3-(3,3-dimethylmorpholino)-5-methyl-1H-pyrazol-1-yl)-2-azaspiro[3.3]heptan-2-yl)prop-2-en-1-one] |
| > 50 | C=CC(=O)N1CC2(CC(n3nc(N4CCCCC45CN(C(C)=O)C5)c(-c4c(Cl)c(C)cc5[nH]ncc45)c3C)C2)C1 (single isomer, unassigned) [Example 66a, 1-(6-(3-(2-acetyl-2,5-diazaspiro[3.5]nonan-5-yl)-4-(5-chloro-6-methyl-1H-indazol-4-yl)-5-methyl-1H-pyrazol-1-yl)-2-azaspiro[3.3]heptan-2-yl)prop-2-en-1-one] |
| 0.006 | C=CC(=O)N1CC2(CC(n3nc(N4CC[C@@H](CN(C)CC(=O)N5CCCC5)CC4(C)C)c(-c4c(Cl)c(Cl)cc5[nH]ncc45)c3C)C2)C1 (single isomer, unassigned) [Example 252b] |
| 0.022 | C=CC(=O)N1CC2(CC(n3nc(N4CC[C@@H](CN5CC6CC6(O)C5)CC4(C)C)c(-c4c(Cl)c(Cl)cc5[nH]ncc45)c3C)C2)C1 (single isomer, unassigned) [Example 258b] |
| 0.012 | C=CC(=O)N1CC2(CC(n3nc(N4CCC(N5CC(OC)C5)CC4(C)C)c(-c4c(Cl)c(Cl)cc5[nH]ncc45)c3C)C2)C1 (single isomer, unassigned) [Example 209b, 1-(6-(4-(5,6-dichloro-1H-indazol-4-yl)-3-(4-(3-methoxyazetidin-1-yl)-2,2-dimethylpiperidin-1-yl)-5-methyl-1H-pyrazol-1-yl)-2-azaspiro[3.3]heptan-2-yl)prop-2-en-1-one] |
| 0.027 | C=CC(=O)N1CC2(CC(n3nc(N4C[C@H](C)N(C5COC5)CC4(C)C)c(-c4c(Cl)c(Cl)cc5[nH]ncc45)c3C)C2)C1 (single isomer, unassigned) [Example 104b] |
| 4.7 | C=CC(=O)N1CC2(CC(n3nc(N4CC[C@@H](CN5C[C@@H]6CS(=O)(=O)C[C@@H]6C5)CC4(C)C)c(-c4c(Cl)c(Cl)cc5[nH]ncc45)c3C)C2)C1 (single isomer, unassigned) [Example 294a] |
| > 5 | C=CC(=O)N1CC2(CC(n3nc(N4CC[C@@H](CN5CCN(C6COC6)C6COCC65)CC4(C)C)c(-c4c(Cl)c(Cl)cc5[nH]ncc45)c3C)C2)C1 (single isomer, unassigned) [Example 280a, 1-(6-(4-(5,6-dichloro-1H-indazol-4-yl)-3-((R)-2,2-dimethyl-4-(((4aS*,7aR*)-4-(oxetan-3-yl)hexahydrofuro[3,4-b]pyrazin-1(2H)-yl)methyl)piperidin-1-yl)-5-methyl-1H-pyrazol-1-yl)-2-azaspiro[3.3]heptan-2-yl)prop-2-en-1-one] |
| 0.104 | C=CC(=O)N1CC2(CC(n3nc(N4CCN(C5COC5)CC45CCOC5)c(-c4c(Cl)c(C)cc5[nH]ncc45)c3C)C2)C1 (single isomer, unassigned) [Example 141b, 1-(6-(4-(5-chloro-6-methyl-1H-indazol-4-yl)-5-methyl-3-(9-(oxetan-3-yl)-2-oxa-6,9-diazaspiro[4.5]decan-6-yl)-1H-pyrazol-1-yl)-2-azaspiro[3.3]heptan-2-yl)prop-2-en-1-one] |
| 0.005 | C=CC(=O)N1CC2(CC(n3nc(N4CCN(C(COC)COC)C[C@]4(C)CC)c(-c4c(Cl)c(C)cc5[nH]ncc45)c3C)C2)C1 (single isomer, unassigned) [Example 187b] |
| 0.022 | C=CC(=O)N1CC2(CC(n3nc(N4CCN(CC5(O)CC5)CC45CCC5)c(-c4c(Cl)c(C)cc5[nH]ncc45)c3C)C2)C1 (single isomer, unassigned) [Example 154b, 1-(6-(4-(5-chloro-6-methyl-1H-indazol-4-yl)-3-(8-((1-hydroxycyclopropyl)methyl)-5,8-diazaspiro[3.5]nonan-5-yl)-5-methyl-1H-pyrazol-1-yl)-2-azaspiro[3.3]heptan-2-yl)prop-2-en-1-one] |
